Where two headings read alike, the source gives them in different places.
Key:
[1] = molecular target: T1, mGluR5 (Rattus norvegicus, UniProt P31424); experiment: IC50 column under 'Biological Activity' (assay not identified in the shown text; not the binding Ki)
[2] = molecular target: T2, rat mGluR5 receptor (Rattus norvegicus, UniProt P31424); experiment: [3H]-MPEP displacement binding assay, HEK-293 cell membranes expressing rat mGluR5; details: [3H]-MPEP displacement, read-out: Median Ki
T2 construct: expressed in transfected cells; host or cells: HEK-293
T2 sequence (P31424 21-1203): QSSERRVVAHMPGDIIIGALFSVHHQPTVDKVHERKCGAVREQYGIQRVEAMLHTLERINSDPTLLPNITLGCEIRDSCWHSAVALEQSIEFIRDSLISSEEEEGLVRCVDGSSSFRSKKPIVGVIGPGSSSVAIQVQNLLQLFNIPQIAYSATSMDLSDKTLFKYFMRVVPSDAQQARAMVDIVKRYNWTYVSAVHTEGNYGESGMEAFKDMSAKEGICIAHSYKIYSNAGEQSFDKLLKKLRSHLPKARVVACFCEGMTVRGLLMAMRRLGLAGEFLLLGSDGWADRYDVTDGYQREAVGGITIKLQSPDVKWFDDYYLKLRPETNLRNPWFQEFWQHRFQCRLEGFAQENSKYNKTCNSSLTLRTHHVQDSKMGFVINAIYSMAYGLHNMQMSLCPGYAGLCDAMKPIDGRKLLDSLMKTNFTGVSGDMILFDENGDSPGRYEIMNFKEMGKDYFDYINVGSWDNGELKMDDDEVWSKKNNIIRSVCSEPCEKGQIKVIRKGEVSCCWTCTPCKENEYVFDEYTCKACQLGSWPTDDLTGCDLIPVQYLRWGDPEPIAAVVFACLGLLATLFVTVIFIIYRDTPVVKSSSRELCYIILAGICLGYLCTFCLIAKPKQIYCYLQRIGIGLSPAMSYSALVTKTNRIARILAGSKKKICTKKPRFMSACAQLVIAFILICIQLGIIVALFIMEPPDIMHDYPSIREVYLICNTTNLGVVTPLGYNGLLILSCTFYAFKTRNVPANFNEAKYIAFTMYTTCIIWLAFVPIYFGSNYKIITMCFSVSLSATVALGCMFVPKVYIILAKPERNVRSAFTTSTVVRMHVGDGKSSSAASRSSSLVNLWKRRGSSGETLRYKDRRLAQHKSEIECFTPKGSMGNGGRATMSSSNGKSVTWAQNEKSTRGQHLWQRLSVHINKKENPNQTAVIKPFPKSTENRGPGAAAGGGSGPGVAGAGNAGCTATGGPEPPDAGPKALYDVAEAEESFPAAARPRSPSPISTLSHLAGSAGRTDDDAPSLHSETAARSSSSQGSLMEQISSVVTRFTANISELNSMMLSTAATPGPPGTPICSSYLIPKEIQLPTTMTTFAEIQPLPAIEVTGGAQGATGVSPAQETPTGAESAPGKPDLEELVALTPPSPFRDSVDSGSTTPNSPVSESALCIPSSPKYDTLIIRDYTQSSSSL
In short: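 Membranes from HEK-293 cells expressing rat mGluR5 (12-25 μg protein), incubated 60 min at room temperature with 4 nM [3H]-MPEP in 50 mM Tris pH 7.5, then filtered. Nonspecific binding defined with 10 μM MPEP.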

[3] = molecular target: T1, mGluR5; experiment: IC50 column under 'Biological Activity' (assay not identified in the shown text; not the binding Ki); remark: listed apart in the source

T1 sequence (P31424 21-1203): as above

SMILES | IC50 [1] [nM] | Ki ([2]; rat mGluR5) [nM] | IC50 [3] [nM] | Ki ([2]; rat mGluR5 membranes) [nM]
O=C(c1ccc(OC(F)(F)F)c(C#Cc2ccccn2)c1)N1CCN(c2cnccn2)CC1 [Compound 335, 2-{4-[3-(pyridin-2-ylethynyl)-4-(trifluoromethoxy)benzoyl]piperazin-1-yl}pyrazine] | 273 | 176 | – | –
O=C(c1ccc(OC(F)(F)F)c(C#Cc2ccccn2)c1)N1CCN(c2noc3ccccc23)CC1 [Compound 338, 3-{4-[3-(pyridin-2-ylethynyl)-4-(trifluoromethoxy)benzoyl]piperazin-1-yl}-1,2-benzisoxazole] | 16 | 1 | – | –
O=C(c1ccc(OC(F)(F)F)c(C#Cc2ccccn2)c1)N1CCN(c2ccccn2)CC1 [Compound 340, 1-Pyridin-2-yl-4-{[3-(pyridin-2-ylethynyl)-4-(trifluoromethoxy)phenyl]carbonyl}piperazine] | 7 | 2 | – | –
COc1ccc(C(=O)N2CCN(c3ncccn3)CC2)cc1C#Cc1cccc(C#N)c1 [Compound 361, 3-({2-methoxy-5-[(4-pyrimidin-2-ylpiperazin-1-yl)carbonyl]phenyl}ethynyl)benzonitrile] | 56 | 64 | – | –
COc1ccc(C(=O)N2CCN(c3ncccn3)CC2)cc1C#Cc1ccc(F)cc1 [Compound 362, 2-(4-{3-[(4-fluorophenyl)ethynyl]-4-methoxybenzoyl}piperazin-1-yl)pyrimidine] | 1450 | 68 | – | –
O=C(c1ccc(C(F)(F)F)c(C#Cc2ccccn2)c1)N1CCN(c2ccccn2)CC1 [Compound 369, 1-pyridin-2-yl-4-{[3-(pyridin-2-ylethynyl)-4-(trifluoromethyl)phenyl]carbonyl}piperazine] | – | – | 30 | 31
COc1ccnc(N2CCN(C(=O)c3ccc(C(F)(F)F)c(C#Cc4ccccn4)c3)CC2)n1 [Compound 373, 4-methoxy-2-(4-{[3-(pyridin-2-ylethynyl)-4-(trifluoromethyl)phenyl]carbonyl}piperazin-1-yl)pyrimidine] | – | – | 34 | 40
O=C(c1ccc(C(F)(F)F)c(C#Cc2ccccn2)c1)N1CCN(c2noc3ccccc23)CC1 [Compound 374, 3-(4-{[3-(pyridin-2-ylethynyl)-4-(trifluoromethyl)phenyl]carbonyl}piperazin-1-yl)-1,2-benzisoxazole] | – | – | 53 | 4
O=C(c1ccc(C(F)(F)F)c(C#Cc2ccccn2)c1)N1CCN(C(=O)c2ccco2)CC1 [Compound 375, 1-(furan-2-ylcarbonyl)-4-{[3-(pyridin-2-ylethynyl)-4-(trifluoromethyl)phenyl]carbonyl}piperazine] | – | – | 40 | 29
COc1nc(N2CCN(C(=O)c3ccc(OC(F)F)c(C#Cc4ccccn4)c3)CC2)ncc1Br [Compound 382, 5-bromo-2-(4-{[4-(difluoromethoxy)-3-(pyridin-2-ylethynyl)phenyl]carbonyl}piperazin-1-yl)-4-methoxy pyrimidine] | – | – | 104 | 35
O=C(c1ccc(OC(F)F)c(C#Cc2ccccn2)c1)N1CCN(c2nsc3ccccc23)CC1 [Compound 383, 3-(4-{[4-(difluoromethoxy)-3-(pyridin-2-ylethynyl)phenyl]carbonyl}piperazin-1-yl)-1,2-benzisothiazole] | – | – | 41 | 1
O=C(c1ccc(OC(F)F)c(C#Cc2ccccn2)c1)N1CCN(c2noc3ccccc23)CC1 [Compound 384, 3-(4-{[4-(difluoromethoxy)-3-(pyridin-2-ylethynyl)phenyl]carbonyl}piperazin-1-yl)-1,2-benzisoxazole] | – | – | 16 | 1
O=C(c1ccc(OC(F)F)c(C#Cc2ccccn2)c1)N1CCN(c2ccccn2)CC1 [Compound 385, 1-{[4-(Difluoromethoxy)-3-(pyridin-2-ylethynyl)phenyl]carbonyl}-4-pyridin-2-ylpiperazin] | – | – | 13 | 7
O=C(c1ccc(Cl)c(C#Cc2ccccn2)c1)N1CCN(c2cccc(O)c2)CC1 [Compound 393, 3-(4-{[4-chloro-3-(pyridin-2-ylethynyl)phenyl]carbonyl}piperazin-1-yl)phenol] | – | – | 144 | 12
COc1cccc(N2CCN(C(=O)c3ccc(Cl)c(C#Cc4ccccn4)c3)CC2)c1 [Compound 395, 1-{[4-chloro-3-(pyridin-2-ylethynyl)phenyl]carbonyl}-4-(3-methoxyphenyl)piperazine] | – | – | 113 | 19

Second part, the compound after the results:

IC50 [1] [nM] | Ki ([2]; rat mGluR5) [nM] | IC50 [3] [nM] | Ki ([2]; rat mGluR5 membranes) [nM] | SMILES
– | – | 43 | 49 | O=C(c1ccc(C(F)(F)F)c(C#Cc2ccccn2)c1)N1CCN(c2nccs2)CC1 [Compound 378, 1-{[3-(pyridin-2-ylethynyl)-4-(trifluoromethyl)phenyl]carbonyl}-4-(1,3-thiazol-2-yl)piperazine]
– | – | 39 | 3 | O=C(c1ccc(Cl)c(C#Cc2ccccn2)c1)N1CCN(c2ccccn2)CC1 [Compound 386, 1-[4-chloro-3-(pyridin-2-ylethynyl)benzoyl]-4-pyridin-2-ylpiperazin]
– | – | 131 | 10 | O=C(c1ccc(Cl)c(C#Cc2ccccn2)c1)N1CCN(c2ncccn2)CC1 [Compound 387, 2-{4-[4-chloro-3-(pyridin-2-ylethynyl)benzoyl]piperazin-1-yl}pyrimidine]
– | – | 94 | 13 | O=C(c1ccc(Cl)c(C#Cc2ccccn2)c1)N1CCN(c2cnccn2)CC1 [Compound 388, 2-{4-[4-chloro-3-(pyridin-2-ylethynyl)benzoyl]piperazin-1-yl}pyrazine]
– | – | 239 | 63 | N#Cc1cccnc1N1CCN(C(=O)c2ccc(Cl)c(C#Cc3ccccn3)c2)CC1 [Compound 389, 2-{4-[4-chloro-3-(pyridin-2-ylethynyl)benzoyl]piperazin-1-yl}nicotinonitrile]
– | – | 39 | 7 | O=C(c1ccc(Cl)c(C#Cc2ccccn2)c1)N1CCN(c2nccs2)CC1 [Compound 390, 1-[4-chloro-3-(pyridin-2-ylethynyl)benzoyl]-4-(1,3-thiazol-2-yl)piperazine]
– | – | 1490 | 79 | O=C(c1ccc(Cl)c(C#Cc2ccccn2)c1)N1CCN(c2ccncc2)CC1 [Compound 391, 1-[4-chloro-3-(pyridin-2-ylethynyl)benzoyl]-4-pyridin-4-ylpiperazine]
– | – | 145 | 21 | O=C(c1ccc(Cl)c(C#Cc2ccccn2)c1)N1CCN(c2ncccc2Cl)CC1 [Compound 394, 1-(3-chloropyridin-2-yl)-4-{[4-chloro-3-(pyridin-2-ylethynyl)phenyl]carbonyl}piperazine]
– | – | 47 | 17 | N#Cc1nccnc1N1CCN(C(=O)c2ccc(Cl)c(C#Cc3ccccn3)c2)CC1 [Compound 396, 3-(4-{[4-chloro-3-(pyridin-2-ylethynyl)phenyl]carbonyl}piperazin-1-yl)pyrazine-2-carbonitrile]
